According to patent US20230212164A1, “ANNULATED 2-AMINO-3-CYANO THIOPHENES AND DERIVATIVES FOR THE TREATMENT OF CANCER” (BOEHRINGER INGELHEIM INTERNATIONAL GMBH, priority 2020, published 2023):

Key:
[1] = test system: pERK (Thr202/Tyr204) in NCI-H358_Cas9_SOS2 (SOS2 knocked); assay: ERK phosphorylation assay 2 (AlphaLISA SureFire Ultra p-ERK1/2); conditions: read-out: IC50 H358 pERK, ERK phosphorylation assay 2 (values marked with *)
Experimental: ERK Phosphorylation Assay
Low IC50 values in this assay setting are indicative of high potency of the compounds according to the invention.
GFP positive cells were collected and further expanded. These GFP-positive cell pools were single-cell diluted and SOS2 knock-out clones were identified via Western-blot and genomic DNA sequencing analysis.
Materials Used for the Assay:
AlphaLISA SureFire Ultra p-ERK1/2 (Thr202/Tyr204) Assay Kit (ALSU-PERK-A500)
Cells are seeded at 40,000 cells per well in /60 μL of RPMI with 10% FBS, non-essential amino acids, pyruvate and glutamax in Greiner TC 384 plates. The cells are incubated for 1 h at room temperature and then incubated overnight in an incubator at 37° C. and 5% CO2 in a humidified atmosphere. 60 nL compound solution (10 mM DMSO stock solution) is then added using a Labcyte Echo 550 device. After a 1 h incubation in the aforementioned incubator the medium is removed after centrifugation and the cells lysed by addition of 20 μL of 1.6-fold lysis buffer from the AlphaLISA SureFire Ultra pERK1/2 (Thr202/Tyr204) Assay Kit with added protease inhibitors, 100 nM trametinib+100 nM staurosporine. After 20 minutes of incubation at room temperature with shaking, 6 μL of each lysate sample is transferred to a 384-well Proxiplate and analyzed for pERK (Thr202/Tyr204) with the AlphaLISA SureFire Ultra pERK1/2 (Thr202/Tyr204) Assay Kit. 3 μL Acceptor Mix and 3 μL Donor Mix are added under subdued light and incubated for 2 h at room temperature in the dark, before the signal is measured on a PerkinElmer Envision HTS Multilabel Reader. The raw data were imported into and analyzed with the Boehringer Ingelheim proprietary software MegaLab (curve fitting based on the program PRISM, GraphPad Inc.).

[2] = target: KRASG12-dependent Ba/F3 cells (Homo sapiens, UniProt P01116, G12C, cells depend on it); assay: Ba/F3 cell model proliferation assay (AlamarBlue, 72 h); format: cell-based; conditions: Ba/F3 cells transduced with KRASG12C, read-out: IC50 Ba/F3 KRASG12C
Experimental: Ba/F3 Cell Model Generation and Proliferation Assay
Plasmids containing KRASG12 mutants were obtained from GeneScript. To generate KRASG12-dependent Ba/F3 models, Ba/F3 cells were transduced with retroviruses containing vectors that harbor KRASG12 isoforms. Platinum-E cells (Cell Biolabs) were used for retrovirus packaging. Retrovirus was added to Ba/F3 cells. To ensure infection, 4 μg/mL polybrene was added and cells were spinfected. […] Cells with an infection efficiency of 10% to 20% were further cultivated and puromycin selection with 1 μg/mL was initiated. As a control, parental Ba/F3 cells were used to show selection status. Selection was considered successful when parental Ba/F3 cells cultures died. To evaluate the transforming potential of KRASG12 mutations, the growth medium was no longer supplemented with IL-3. Ba/F3 cells harboring the empty vector were used as a control. Approximately ten days before conducting the experiments, puromycin was left out.
All treatments were performed in technical duplicates. The assay is run using a fully automated robotic system. Treated cells were incubated for 72 h at 37° C. with 5% CO2.
AlamarBlue™ (ThermoFisher), a viability stain, was added and fluorescence measured in the PerkinElmer Envision HTS Multilabel Reader.

[3] = target: T1, protein-protein interaction between SOS1 and KRAS G12C (Homo sapiens, UniProt P01116, C118S/C51S/C80L/G12C); assay: KRAS::SOS1 AlphaScreen binding assay
T1 construct: His6 (N)

NCI-H358 cells = assay: NCI-H358 CTG proliferation assay (120 h) (NSCLC); format: cell-based; conditions: Homo sapiens
Experimental: NCI-H358 cells (ATCC No. CRL-5807) were dispensed into white bottom opaque 96 well plates (Perkin Elmer cat no. 5680) at a density of 2000 cells per well in 100 μL RPMI-1640 ATCC-Formulation (Gibco #A10491)+10% FCS. Cells were incubated overnight at 37° C. in a humidified tissue culture incubator at 5% CO2. Compounds (10 mM stock in DMSO) were added at logarithmic dose series using the HP Digital Dispenser D300 (Tecan), normalizing for added DMSO. For the T0 time point measurement, untreated cells were analyzed at the time of compound addition. Plates were incubated for 120 hours, and cell viability was measured using CellTiter-Glo luminescent cell viability reagent (Promega product code G7570). Viability (stated as percent of control) is defined as relative luminescence units RLU of each well divided by the RLU of cells in DMSO controls. IC50 values were determined from viability measurements by non-linear regression using a four parameter model.

KRASG12-dependent Ba/F3 cells, sequence (P01116 whole entry G12C): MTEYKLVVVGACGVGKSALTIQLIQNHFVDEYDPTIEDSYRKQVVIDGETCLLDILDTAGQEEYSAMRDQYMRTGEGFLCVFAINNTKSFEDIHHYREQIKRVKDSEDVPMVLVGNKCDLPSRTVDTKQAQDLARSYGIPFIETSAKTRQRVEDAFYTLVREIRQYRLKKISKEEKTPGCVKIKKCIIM
T1 sequence (P01116 1-169 isoform P01116-2 G12C/C51S/C80L/C118S): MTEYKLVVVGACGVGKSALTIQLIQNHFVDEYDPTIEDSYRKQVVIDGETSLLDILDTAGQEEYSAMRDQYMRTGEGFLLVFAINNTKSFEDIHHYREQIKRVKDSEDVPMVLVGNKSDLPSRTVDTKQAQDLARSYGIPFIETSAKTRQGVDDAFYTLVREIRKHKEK

Row | SMILES | IC50 [1] | GI50 [2] | IC50 ([3]; Table 36) | IC50 ([3]; Table 37) | IC50 ([3]; Table 38) | IC50 (NCI-H358 cells)
1 | C=CC(=O)N1CCN(c2cc(O[C@@H](C)[C@@H]3CCCN3C)nc(-c3noc([C@@]4(C)CCCc5sc(N)c(C#N)c54)n3)c2)CC12CCCC2 [Ia-84] | 11 nM | 9.9 nM | 3 nM | – | – | –
2 | C/C=C/C(=O)N1CCN(c2cc(-c3noc([C@@]4(C)CCCc5sc(N)c(C#N)c54)n3)nc(O[C@@H](C)[C@@H]3CCCN3C)n2)CC1 [Ia-155] | 39.8 nM | 271 nM | – | 10 nM | – | –
3 | C=CC(=O)N1CC[C@H](Oc2cc(O[C@@H](C)[C@@H]3CCCN3C)nc(-c3noc([C@@]4(C)CCCc5sc(N)c(C#N)c54)n3)c2)C1 [Ia-82] | 7.7 nM | 17.3 nM | 2 nM | – | – | –
4 | CC#CC(=O)N1CCN(c2cc(O[C@@H](C)[C@@H]3CCCN3C)nc(-c3noc([C@@]4(C)CCCc5sc(N)c(C#N)c54)n3)n2)CC12CC2 [Ia-165] | 4 nM | 12.5 nM | – | – | 4 nM | –
5 | C=CC(=O)N1CCCN(c2cc(-c3noc([C@@]4(C)CCCc5sc(N)c(C#N)c54)n3)nc(O[C@@H](C)[C@@H]3CCCN3C)n2)[C@@H](C)C1 [Ia-58] | 300 nM | 3480 nM | 319 nM | – | – | –
6 | C=CC(=O)N1[C@H](C)CN(c2cc(-c3noc([C@@]4(C)CCCc5sc(N)c(C#N)c54)n3)nc(O[C@@H](C)[C@@H]3CCCN3C)n2)C[C@H]1C [Ia-56] | 62.1 nM | 303 nM | 105 nM | – | – | –
7 | C=CC(=O)N1CCN(c2cc(-c3noc([C@@]4(C)CCCc5sc(N)c(C#N)c54)n3)nc(OC[C@@H]3C[C@@H]4C[C@@H]4N3C)n2)CC1 [Ia-71] | 21.4 nM | 23.7 nM | 3 nM | – | – | –
8 | C=CC(=O)N1CCC(Oc2cc(O[C@@H](C)[C@@H]3CCCN3C)nc(-c3noc([C@@]4(C)CCCc5sc(N)c(C#N)c54)n3)c2)CC1 [Ia-4] | 1.1 nM | 1 nM | 1.7 nM | – | – | –
9 | C=CC(=O)N1CCN(c2cc(-c3noc([C@@]4(C)CCCc5sc(N)c(C#N)c54)n3)nc(O[C@@H](C)[C@@H]3CC[C@H](C)N3C)n2)CC1 [Ia-137] | 0.7 nM | 0.5 nM | 1.8 nM | – | – | –
10 | C=CC(=O)N1CCN(c2cc(-c3noc([C@@]4(C)CCCc5sc(N)c(C#N)c54)n3)nc(O[C@@H](C)[C@@H]3CCCN3C3CCN(C)CC3)n2)CC1 [Ia-135] | 9.6 nM | 25.4 nM | 2 nM | – | – | –
11 | C=CC(=O)N1CCN(c2cc(-c3noc([C@@]4(C)CCCc5sc(N)c(C#N)c54)n3)nc(OC3CCC4CCN(C)C43)n2)CC1 (stereo partly shown) [Ia-48] | 21.3 nM | 97.6 nM | 8 nM | – | – | –
12 | C=CC(=O)N1CCN(c2cc(O[C@@H](C)[C@@H]3CCCN3C)nc(-c3noc([C@@]4(C)CCCc5sc(N)c(C#N)c54)n3)c2)CC1 [Ia-26] | 1.5 nM | 3.3 nM | 1.9 nM | – | – | –
13 | C=CC(=O)N1CC[C@@H](Oc2cc(O[C@@H](C)[C@@H]3CCCN3C)nc(-c3noc([C@@]4(C)CCCc5sc(N)c(C#N)c54)n3)c2)C1 [Ia-81] | 1.7 nM | 1.9 nM | 1.6 nM | – | – | –
14 | C=CC(=O)N1CCN(c2cc(O[C@@H](C)[C@@H]3CCCN3C)nc(-c3noc([C@@]4(C)CCCc5sc(N)c(C#N)c54)n3)n2)CC1 [Ia-136] | 0.9 nM | 2 nM | 1.4 nM | – | – | –
15 | C=CC(=O)N1CCN(c2cc(-c3noc([C@@]4(C)CCc5sc(N)c(C#N)c54)n3)nc(N[C@@H](C)[C@@H]3CCCN3C)n2)CC1 [Ia-132] | 1350 nM | 1310 nM | 515 nM | – | – | –
16 | C=CC(=O)N1C[C@H](Oc2cc(O[C@@H](C)[C@@H]3CCCN3C)nc(-c3noc([C@@]4(C)CCCc5sc(N)c(C#N)c54)n3)c2)[C@H]1C [Ia-85] | 0.7 nM | 0.7 nM | 1.6 nM | – | – | –
17 | COC/C=C/C(=O)N1CCN(c2cc(-c3noc([C@@]4(C)CCCc5sc(N)c(C#N)c54)n3)nc(O[C@@H](C)[C@@H]3CCCN3C)n2)CC12CC2 [Ia-160] | 25.3 nM | 116 nM | – | 11 nM | – | –
18 | C=CC(=O)N1CCN(c2nc(O[C@@H](C)[C@@H]3CCCN3C)nc(-c3noc([C@@]4(C)CCCc5sc(N)c(C#N)c54)n3)n2)CC1 [Ia-139] | 1.4 nM | 2.1 nM | 1.5 nM | – | – | –
19 | COC/C=C\C(=O)N1CCN(c2cc(O[C@@H](C)[C@@H]3CCCN3C)nc(-c3noc([C@@]4(C)CCCc5sc(N)c(C#N)c54)n3)n2)CC12CC2 [Ia-161] | 26.5 nM | 162 nM | – | 21 nM | – | –
20 | C=CC(=O)N1CCN(c2cc(-c3noc([C@@]4(C)CCCc5sc(N)c(C#N)c54)n3)nc(OC3C4CC5CN(C)C3C5C4)n2)CC1 (stereo partly shown) [Ia-50] | 121 nM | 496 nM | 11 nM | – | – | –
21 | C=CC(=O)N1CC[C@H](C)N(c2cc(-c3noc([C@@]4(C)CCCc5sc(N)c(C#N)c54)n3)nc(O[C@@H](C)[C@@H]3CCCN3C)n2)CC1 [Ia-55] | 9.8 nM | 24.2 nM | 2 nM | – | – | –
22 | C=CC(=O)N1CCN(c2nc(=O)n(-c3c(C)ccnc3C(C)C)c3nc(-c4c(O)cccc4F)c(F)cc23)[C@@H](C)C1 [sotorasib, reference compound] | – | – | – | – | – | 21 nM
23 | COC/C=C/C(=O)N1CCN(c2cc(-c3noc([C@@]4(C)CCCc5sc(N)c(C#N)c54)n3)nc(O[C@@H](C)[C@@H]3CCCN3C)n2)CC1 [Ia-157] | 238 nM | 1520 nM | – | 16 nM | – | –
24 | C=CC(=O)N1CCN(c2cc(-c3noc([C@@]4(C)CCCc5sc(N)c(C#N)c54)n3)nc(OC[C@@H]3CC4(CC4)CN3C)n2)CC1 [Ia-72] | 50.9 nM | 77.8 nM | 7 nM | – | – | –
25 | CC#CC(=O)N1CCN(c2cc(-c3noc([C@@]4(C)CCCc5sc(N)c(C#N)c54)n3)nc(O[C@@H](C)[C@@H]3CCCN3C)n2)CC12CC2 [Ia-166] | 4.2 nM | 13.4 nM | – | – | 3 nM | –
26 | C=CC(=O)N1CCC(Oc2cc(-c3noc([C@]4(C)CCCc5sc(N)c(C#N)c54)n3)nc(N3CCN(C)C[C@@H]3C)c2)CC1 [Ia-80] | 1150 nM | 559 nM | 507 nM | – | – | –
